Patent publication US9248109B2, “High penetration prodrug compositions of peptides and peptide-related compounds” (priority 2009, dated 2016)
Where a name gives a salt, the structure may show the parent alone. Non-standard residues stand in square brackets, D forms with d. Residues, ends and D or L forms follow the SMILES beside them. *: point of attachment. Arg(NO2) = N=C(NCCC[C@H](N)C(=O)O)N[N+](=O)[O-]; X1 = CCCCO*

Test system: young Sprague Dawley rats
Test: Anti-obese activity, transdermal, young female Sprague Dawley rats (second experiment)
Type: in vivo, rat
Details: for effect on overweight of young rats (in words): 10, 1 or 0.3 mg/kg transdermal twice per day for 30 days; for Food intake (per day & per rat) / Weight (g) (Day 30) / Weight (g) (Day 1): young rats; for Weight (g) (Day 1): baseline
Procedure: (§1) In a second experiment, 40 young female Sprague Dawley (SD) rats (180-225 g) were divided into 4 groups. In group A, 0.2 ml of water was administered to the back of rat (n=10) twice per day for 30 days. In Groups B, C, and D, 10 mg/kg, 1 mg/kg, or 0.3 mg/kg of H-Val-Pro-Gly-Pro-Arg(NO2)—OCH(CH3)2.HCl(SEQ ID NO: 197) in 0.2 ml of water were administered transdermally to the backs of rats (n=10) twice per day for 30 days respectively.
as §1, with “(180-230” for “(180-225”, “H-Val-Pro-Gly-Pro-Arg(diAc)-OCH2CH2CH2CH3.HCl(SEQ” for “H-Val-Pro-Gly-Pro-Arg(NO2)—OCH(CH3)2.HCl(SEQ”, “198)” for “197)”, “days.” for “days respectively.”
as §1, with “rats (182-223” for “rats (180-225”, “of H-Ala-Pro-Gly-Pro-Arg(NO2)—OCH2CH2CH2CH3.HCl(SEQ” for “of H-Val-Pro-Gly-Pro-Arg(NO2)—OCH(CH3)2.HCl(SEQ”, “NO: 199)” for “NO: 197)”, “water was” for “water were”
as §1, with “(185-220” for “(180-225”, “H-Val-Pro-Asp(OEt)-Pro-Arg(NO2)-OCH2CH2CH2CH3.HCl(SEQ” for “H-Val-Pro-Gly-Pro-Arg(NO2)—OCH(CH3)2.HCl(SEQ”, “200)” for “197)”, “days.” for “days respectively.”

[1] = 0.3 mg/kg transdermal twice per day for 30 days
[2] = 0.3 mg/kg transdermal twice per day
[3] = 1 mg/kg transdermal twice per day for 30 days
[4] = 1 mg/kg transdermal twice per day
[5] = 10 mg/kg transdermal twice per day for 30 days
[6] = 10 mg/kg transdermal twice per day

| Compound | effect on overweight of young rats (in words) | Food intake (per day & per rat) [1] | Weight (g) (Day 30) [1] | Weight (g) (Day 1) [2] | Food intake (per day & per rat) [3] | Weight (g) (Day 30) [3] | Weight (g) (Day 1) [4] | Food intake (per day & per rat) [5] | Weight (g) (Day 30) [5] | Weight (g) (Day 1) [6] |
| --- | --- | --- | --- | --- | --- | --- | --- | --- | --- | --- |
| CCCCOC(=O)[C@H](CCCNC(=N)N[N+](=O)[O-])NC(=O)[C@@H]1CCCN1C(=O)CNC(=O)[C@@H]1CCCN1C(=O)[C@H](C)N [H-Ala-Pro-Gly-Pro-Arg(NO2)—OCH2CH2CH2CH3.HCl] (HELM PEPTIDE1{A.P.G.P.[N=C(NCCC[C@H](N[*:1])C(=O)[*:2])N[N+](=O)[O-]].[CCCCO[*:1]]}$$$$V2.0) | controlled overweight of rats effectively | 21.3 ± 2.2 | 326.2 ± 4.8 | 194.1 ± 4.5 | 20.3 ± 2.7 | 321.7 ± 4.0 | 192.6 ± 4.1 | 19.5 ± 2.3 | 305.4 ± 4.7 | 193.7 ± 4.2 |
| CCCCOC(=O)[C@H](CCCNC(=N)N[N+](=O)[O-])NC(=O)[C@@H]1CCCN1C(=O)[C@H](CC(=O)OCC)NC(=O)[C@@H]1CCCN1C(=O)[C@@H](N)C(C)C [H-Val-Pro-Asp(OEt)-Pro-Arg(NO2)—OCH2CH2CH2CH3.HCl] (H-VPD(OEt)P[Arg(NO2)]-X1) | controlled overweight of rats effectively | 22.7 ± 2.9 | 336.6 ± 5.8 | 192.1 ± 4.6 | 21.3 ± 2.1 | 325.4 ± 4.9 | 193.2 ± 4.7 | 20.4 ± 2.7 | 315.4 ± 6.7 | 191.2 ± 5.2 |
| CC(C)OC(=O)[C@H](CCCNC(=N)N[N+](=O)[O-])NC(=O)[C@@H]1CCCN1C(=O)CNC(=O)[C@@H]1CCCN1C(=O)[C@@H](N)C(C)C [H-Val-Pro-Gly-Pro-Arg(NO2)-OCH(CH3)2•HCl, H-Val-Pro-Gly-Pro-Arg(NO2)—OCH(CH3)2.HCl] (HELM PEPTIDE1{V.P.G.P.[N=C(NCCC[C@H](N[*:1])C(=O)[*:2])N[N+](=O)[O-]].[CC(C)O[*:1]]}$$$$V2.0) | controlled overweight of young rats effectively | 21.8 ± 2.7 | 327.2 ± 3.8 | 195.1 ± 5.5 | 20.1 ± 2.8 | 323.1 ± 4.5 | 191.6 ± 4.7 | 19.8 ± 3.3 | 307.4 ± 5.7 | 192.7 ± 6.2 |
| H-Val-Pro-Gly-Pro-Arg(diAc)-OCH2CH2CH2CH3.HCl | controlled overweight of young rats effectively | 23.7 ± 2.9 | 346.2 ± 4.8 | 191.1 ± 4.8 | 22.1 ± 2.8 | 334.1 ± 4.9 | 190.6 ± 5.7 | 20.8 ± 2.8 | 317.4 ± 6.4 | 191.7 ± 4.6 |
